Conditions: Liquid, Surface laser light scattering (SLLS)

C [methane] + CCCCCCCCCC
Conditions | interfacial tension [mN/m]
310.93 K, 36221 kPa | 1.41e-05
310.94 K, 36221 kPa | 1.93e-05
310.95 K, 36187 kPa | 0.000902
310.96 K, 36198 kPa | 0.000591
310.97 K, 34448 kPa | 0.1569
310.97 K, 35150 kPa | 0.08112
310.97 K, 35795 kPa | 0.0247
310.97 K, 35857 kPa | 0.01978
310.97 K, 35989 kPa | 0.01122
310.97 K, 36092 kPa | 0.00519
310.97 K, 36215 kPa | 0.0001152
310.97 K, 36218 kPa | 4.75e-05
310.98 K, 35498 kPa | 0.04752
310.98 K, 35946 kPa | 0.014
310.98 K, 36206 kPa | 0.000326
310.99 K, 36151 kPa | 0.002584
311 K, 36213 kPa | 0.00015
311.12 K, 35885 kPa | 0.01746

From the NIST ThermoML archive (doi:10.1016/j.fluid.2018.12.016)
